In one assay the target is rat NR1/NR2B receptor (Rattus norvegicus (Rat), UniProt P35439+Q00960). Kind of assay: NR2B binding assay: inhibition of specific [3H]-Ifenprodil binding to the rat NR1/NR2B receptor. The settings on record: for inhibition at 1 µM: 1 μM test compound, read-out: NR2B binding assay % INH @ 1 μM; for inhibition at 10 µM: 10 μM test compound, read-out: NR2B binding assay % INH @ 10 μM. How it is done:
Inhibition of Specific Binding to the Rat NR1/NR2B Receptor
Male Wistar rats (180 to 200 g) were killed by suffocation in a CO2 chamber for two minutes. Whole brains without cerebellum were removed and dissected on ice, placed into closed vials and stored at −70° C.
Membrane fractions were prepared and tested using standard techniques. At the time of the assay, 1 g of the brains was placed into 25 ml of 50 mM Tris/10 mM EDTA buffer, pH 7.1, (25 vol. per g of original tissue) and homogenized for 30 sec at 20000 rpm with an Ultraturrax T25 (Jahnke & Kunkel, IKA-Labortechnik, Staufen, Germany). The homogenate was centrifuged at 4° C. for 10 min at 48000 g (OPTIMA L-70, Beckman, Palo Alto, Calif. 94304, USA).
The supernatant was discarded and the pellet was homogenized on ice for 30 sec at 20000 rpm with an Ultraturrax and again centrifuged at 48000 g for 30 minutes at 4° C. The resulted pellet was resuspended in 25 ml of 50 mM Tris/10 mM EDTA buffer, homogenized for 30 sec with an Ultraturrax, aliquoted, frozen at −70° C. and stored until use.
After thawing on the day of the assay, a 5 ml membrane aliquot was centrifuged at 48000 g for 30 min at 4° C. The pellet was resuspended in 5 ml of 5 mM Tris/1 mM EDTA buffer, pH 7.4, homogenized for 30 sec at 20000 rpm with an Ultraturrax and centrifuged at 48000 g for 30 min at 4° C. This was repeated twice. The final pellet was homogenized in 5 ml of 5 mM Tris/1 mM EDTA buffer at 4° C. with an Ultraturrax and used for the Ifenprodil-binding assay as described in the following.
Nonspecific binding was estimated in the presence of […] CP101.606. The samples were incubated for 60 min. at 4° C.
The incubation was terminated by filtration of the membrane preparations using Filtermat B (Pharmacia, Uppsala Sweden) and a Micro Cell Harvester (Skatron, Lier, Norway). The Filtermat B had been presoaked with 1% polyethylene imine and carefully washed with 50 mM Tris/HCl-buffer pH 7.7 after the filtration to separate free and bound radioactivity.
The optimal amount of membrane preparation in the assay had been determined and optimized for each membrane preparation separately before the test.
For pipetting of the incubation mixture we routinely used the robot Biomek2000 (Fa. Beckman).
For determination of IC50 values the Hill-plot, 2-parameter-model was used.

A further assay concerns the target hERG receptor (Homo sapiens (Human), UniProt Q12809). Kind of assay: HERGBD: inhibition of specific [3H]-Dofetilide binding to the hERG receptor. The note with it: HEK hERG membranes, Hill-plot 2-parameter model. (In general: Block of hERG is tested as a sign of cardiac risk.)

rat NR1/NR2B receptor, sequence (Q00960 27-1482, other chains not shown): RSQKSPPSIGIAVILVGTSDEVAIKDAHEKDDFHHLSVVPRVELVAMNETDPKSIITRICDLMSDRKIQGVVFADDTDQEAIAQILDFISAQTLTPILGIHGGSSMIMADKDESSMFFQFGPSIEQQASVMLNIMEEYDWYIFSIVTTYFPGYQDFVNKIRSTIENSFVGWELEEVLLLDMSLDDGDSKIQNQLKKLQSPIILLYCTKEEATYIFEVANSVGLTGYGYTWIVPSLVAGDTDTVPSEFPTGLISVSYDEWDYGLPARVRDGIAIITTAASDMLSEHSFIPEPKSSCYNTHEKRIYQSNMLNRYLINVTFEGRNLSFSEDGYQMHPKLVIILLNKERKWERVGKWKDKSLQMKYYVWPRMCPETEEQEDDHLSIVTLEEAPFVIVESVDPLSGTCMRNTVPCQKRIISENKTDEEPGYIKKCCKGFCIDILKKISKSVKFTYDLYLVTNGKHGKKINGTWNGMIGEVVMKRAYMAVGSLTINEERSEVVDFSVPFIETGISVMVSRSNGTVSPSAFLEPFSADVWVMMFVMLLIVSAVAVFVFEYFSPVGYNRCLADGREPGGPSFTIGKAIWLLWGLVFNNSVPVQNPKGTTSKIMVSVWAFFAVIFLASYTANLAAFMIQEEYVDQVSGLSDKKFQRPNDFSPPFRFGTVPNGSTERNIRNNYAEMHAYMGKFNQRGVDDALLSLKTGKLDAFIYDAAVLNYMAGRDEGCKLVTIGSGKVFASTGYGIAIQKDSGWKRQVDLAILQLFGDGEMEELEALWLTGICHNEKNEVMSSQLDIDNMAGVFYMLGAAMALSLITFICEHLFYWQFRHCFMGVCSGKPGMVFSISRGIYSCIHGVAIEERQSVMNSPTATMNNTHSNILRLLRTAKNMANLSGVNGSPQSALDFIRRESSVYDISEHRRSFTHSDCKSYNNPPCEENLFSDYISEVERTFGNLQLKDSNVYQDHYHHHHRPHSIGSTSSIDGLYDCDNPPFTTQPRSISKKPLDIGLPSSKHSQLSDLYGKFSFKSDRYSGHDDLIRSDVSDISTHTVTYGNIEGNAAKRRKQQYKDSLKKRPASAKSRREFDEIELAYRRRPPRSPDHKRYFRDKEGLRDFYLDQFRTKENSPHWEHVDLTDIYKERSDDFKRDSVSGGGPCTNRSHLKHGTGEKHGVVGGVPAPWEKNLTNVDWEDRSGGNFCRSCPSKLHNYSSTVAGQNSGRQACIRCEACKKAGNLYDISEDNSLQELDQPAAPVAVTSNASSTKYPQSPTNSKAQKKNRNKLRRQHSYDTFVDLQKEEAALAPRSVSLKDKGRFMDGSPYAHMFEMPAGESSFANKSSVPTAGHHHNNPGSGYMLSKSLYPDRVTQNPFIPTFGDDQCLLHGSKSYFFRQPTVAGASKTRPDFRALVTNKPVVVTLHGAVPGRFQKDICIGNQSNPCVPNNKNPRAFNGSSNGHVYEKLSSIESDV
hERG receptor, sequence (Q12809 whole entry): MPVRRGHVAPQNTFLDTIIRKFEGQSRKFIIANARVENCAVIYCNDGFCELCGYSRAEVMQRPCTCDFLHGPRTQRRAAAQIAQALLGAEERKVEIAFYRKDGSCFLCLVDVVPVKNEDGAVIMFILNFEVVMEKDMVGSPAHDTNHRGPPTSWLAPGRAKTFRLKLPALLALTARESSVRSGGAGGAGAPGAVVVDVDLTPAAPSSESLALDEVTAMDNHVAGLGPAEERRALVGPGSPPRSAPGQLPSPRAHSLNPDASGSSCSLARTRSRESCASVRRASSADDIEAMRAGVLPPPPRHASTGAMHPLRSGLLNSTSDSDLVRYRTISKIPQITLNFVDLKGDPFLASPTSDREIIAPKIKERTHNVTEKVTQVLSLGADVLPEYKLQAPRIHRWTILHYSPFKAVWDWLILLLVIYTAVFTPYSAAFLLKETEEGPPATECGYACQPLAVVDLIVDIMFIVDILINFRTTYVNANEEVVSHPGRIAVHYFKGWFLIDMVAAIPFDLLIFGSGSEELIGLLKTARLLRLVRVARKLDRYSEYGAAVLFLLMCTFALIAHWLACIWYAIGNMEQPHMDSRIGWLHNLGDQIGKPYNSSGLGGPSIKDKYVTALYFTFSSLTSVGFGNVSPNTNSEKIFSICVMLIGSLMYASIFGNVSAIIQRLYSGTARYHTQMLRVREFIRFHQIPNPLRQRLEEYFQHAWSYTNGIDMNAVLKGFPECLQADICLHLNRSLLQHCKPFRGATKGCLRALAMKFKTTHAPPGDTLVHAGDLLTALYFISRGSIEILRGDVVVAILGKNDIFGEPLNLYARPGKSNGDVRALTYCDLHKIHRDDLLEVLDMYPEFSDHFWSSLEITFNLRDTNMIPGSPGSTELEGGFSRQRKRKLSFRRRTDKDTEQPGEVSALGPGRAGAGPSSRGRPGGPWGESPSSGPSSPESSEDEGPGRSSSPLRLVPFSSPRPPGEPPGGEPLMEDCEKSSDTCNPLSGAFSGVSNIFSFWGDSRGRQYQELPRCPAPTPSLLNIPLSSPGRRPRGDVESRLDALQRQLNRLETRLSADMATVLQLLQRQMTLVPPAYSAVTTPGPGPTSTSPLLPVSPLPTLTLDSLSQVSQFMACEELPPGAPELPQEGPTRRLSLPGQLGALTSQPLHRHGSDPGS
Description for hERG receptor: Inhibition of Specific Binding to the hERG—Receptor (HERGBD)
A HEK cell line with stable transfected human ERG receptor was used for the assay. The cells were grown adherently and maintained in DULBECCOS' MEM medium with 10% FBS, 1% non-essential amino acids, 1% Penicillin/Streptomycin and 400 μg/ml G418 (Calbiochem).
For binding assays and membrane preparations the cell culture medium was removed, cells were washed with PBS. Crude membranes for radioligand binding experiments were prepared by scraping the cells off the dishes in ice cold 20 mM HEPES/0.1 mM KCl/pH 7.2. […]
Binding was terminated by filtration of the incubated membrane preparations using Filtermat B (Pharmacia, Uppsala Sweden) and a Micro Cell Harvester (Skatron, Lier, Norway). The Filtermat B had been presoaked with 1% polyethylenimine and carefully washed with 0.05 M Tris/HCl-buffer pH=7.7 after the filtration to separate free and bound radioactivity. The filters were counted in a scintillation counter (Betaplate 1205, Berthold, Wildbad, Germany) in order to determine the specific binding of [^3H]-Dofetilide.
The optimal amount of membrane preparation in the assay was determined and optimized for each membrane preparation separately in front of using the membranes in compound testing.
The IC50 values in the table below were determined using the Hill-plot, 2-parameter-model.

With `Cc1nc(C)n(Cc2cn(-c3ccc(Cl)cc3)nn2)n1` [Example 1, 1-(4-Chloro-phenyl)-4-(3,5-dimethyl-[1,2,4]triazol-1-ylmethyl)-1H-[1,2,3]triazole], at rat NR1/NR2B receptor, the inhibition at 1 µM is 12.4% and the inhibition at 10 µM came to 31.5%.
The like results for `CCCc1ncnn1Cc1cn(-c2ccc(Cl)cc2)nn1` [Example 2, 1-(4-Chloro-phenyl)-4-(5-propyl-[1,2,4]triazol-1-ylmethyl)-1H-[1,2,3]triazole] were, in that order, 23.9% and 43%.
Turning to `CCCc1ncn(Cc2cn(-c3ccc(Cl)cc3)nn2)n1` [Example 3, 1-(4-Chloro-phenyl)-4-(3-propyl-[1,2,4]triazol-1-ylmethyl)-1H-[1,2,3]triazole], at rat NR1/NR2B receptor, the inhibition at 1 µM is 18.3% and the inhibition at 10 µM is 4.5%.
As to `CC(C)c1ncn(Cc2cn(-c3ccc(Cl)cc3)nn2)n1` [Example 4, 1-(4-Chloro-phenyl)-4-(3-isopropyl-[1,2,4]triazol-1-ylmethyl)-1H-[1,2,3]triazole], on rat NR1/NR2B receptor, the inhibition at 1 µM amounted to 21.6% and the inhibition at 10 µM came to 2%.
The corresponding values for `CCc1ncnn1Cc1cn(-c2ccc(Cl)cc2)nn1` [Example 5, 1-(4-Chloro-phenyl)-4-(5-ethyl-[1,2,4]triazol-1-ylmethyl)-1H-[1,2,3]triazole] are 1.2% and 30.1%.
The like results for `CCc1ncn(Cc2cn(-c3ccc(Cl)cc3)nn2)n1` [Example 6, 1-(4-Chloro-phenyl)-4-(3-ethyl-[1,2,4]triazol-1-ylmethyl)-1H-[1,2,3]triazole] were, in that order, 11.8% and 21.6%.
The corresponding values for `CC(C)c1ncnn1Cc1cn(-c2ccc(Cl)cc2)nn1` [Example 7, 1-(4-Chloro-phenyl)-4-(5-isopropyl-[1,2,4]triazol-1-ylmethyl)-1H-[1,2,3]triazole] are 2.3% and 40.9%.
Take `Cc1ncnn1Cc1cn(-c2ccc(Cl)cc2)nn1` [Example 8, 1-(4-Chloro-phenyl)-4-(5-methyl-[1,2,4]triazol-1-ylmethyl)-1H-[1,2,3]triazole]: at rat NR1/NR2B receptor, the inhibition at 1 µM worked out at 8.3% and the inhibition at 10 µM stood at 38.7%.
Turning to `Cc1ncn(Cc2cn(-c3ccc(Cl)cc3)nn2)n1` [Example 9, 1-(4-Chloro-phenyl)-4-(3-methyl-[1,2,4]triazol-1-ylmethyl)-1H-[1,2,3]triazole], at rat NR1/NR2B receptor, the inhibition at 1 µM is 6.6% and the inhibition at 10 µM amounted to 17.9%.
The corresponding values for `Clc1ccc(-n2cc(Cn3nc(C4CC4)nc3C3CC3)nn2)cc1` [Example 10, 1-(4-Chlorophenyl)-4-(3,5-dicyclopropyl-[1,2,4]triazol-1-ylmethyl)-1-[1,2,3]triazole] are -6% and 3.5%.
Consider `Clc1ccc(-n2cc(Cn3ncnc3C3CCC3)nn2)cc1` [Example 11, 1-(4-Chloro-phenyl)-4-(5-cyclobutyl-[1,2,4]triazol-1-ylmethyl)-1H-[1,2,3]triazole], for which, at rat NR1/NR2B receptor, the inhibition at 1 µM was determined as 8.7% and the inhibition at 10 µM worked out at 41.5%.
For `Clc1ccc(-n2cc(Cn3cnc(C4CCC4)n3)nn2)cc1` [Example 12, 1-(4-Chloro-phenyl)-4-(3-cyclobutyl-[1,2,4]triazol-1-ylmethyl)-1H-[1,2,3]triazole], at rat NR1/NR2B receptor, the inhibition at 1 µM is -0.66% and the inhibition at 10 µM is 11%.
The corresponding values for `Clc1ccc(-n2cc(Cn3cnc(C4CC4)n3)nn2)cc1` [Example 13, 1-(4-Chloro-phenyl)-4-(3-cyclopropyl-[1,2,4]triazol-1-ylmethyl)-1H-[1,2,3]triazole] are 7.5% and 16.2%.
As to `Clc1ccc(-n2cc(Cn3ncnc3C3CCCC3)nn2)cc1` [Example 14, 1-(4-Chloro-phenyl)-4-(5-cyclopentyl-[1,2,4]triazol-1-ylmethyl)-1H-[1,2,3]triazole], the inhibition at 10 µM on rat NR1/NR2B receptor amounted to 49.6%.
With `Clc1ccc(-n2cc(Cn3cnc(C4CCCC4)n3)nn2)cc1` [Example 15], at rat NR1/NR2B receptor, the inhibition at 1 µM is 6.4% and the inhibition at 10 µM is 22.2%.
As for `Clc1ccc(-n2cc(Cn3ncnc3C3CC3)nn2)cc1` [Example 16, 1-(4-Chloro-phenyl)-4-(5-cyclopropyl-[1,2,4]triazol-1-ylmethyl)-1H-[1,2,3]triazole], on rat NR1/NR2B receptor, the inhibition at 1 µM amounted to 3.6% and the inhibition at 10 µM amounted to 32.6%.
`FC(F)(F)c1ncn(Cc2cn(-c3ccc(Cl)cc3)nn2)n1` [Example 17, 1-(4-Chloro-phenyl)-4-(3-trifluoromethyl-[1,2,4]triazol-1-ylmethyl)-1H-[1,2,3]triazole]: on rat NR1/NR2B receptor, the inhibition at 1 µM stood at 19.9% and the inhibition at 10 µM was 12.5%.
The corresponding values for `CC(C)(C)c1ncnn1Cc1cn(-c2ccc(Cl)cc2)nn1` [Example 19, 4-(5-tert-Butyl-[1,2,4]triazol-1-ylmethyl)-1-(4-chloro-phenyl)-1H-[1,2,3]triazole] are 8.2% and 14.5%.
For `CC(C)(C)c1ncn(Cc2cn(-c3ccc(Cl)cc3)nn2)n1` [Example 20, 4-(3-tert-Butyl-[1,2,4]triazol-1-ylmethyl)-1-(4-chloro-phenyl)-1H-[1,2,3]triazole], at rat NR1/NR2B receptor, the inhibition at 1 µM is 27% and the inhibition at 10 µM worked out at 15.3%.
As for `Cc1nc(C2CCC2)n(Cc2cn(-c3ccc(Cl)cc3)nn2)n1` [Example 21, 1-(4-Chloro-phenyl)-4-(5-cyclobutyl-3-methyl-[1,2,4]triazol-1-ylmethyl)-1H-[1,2,3]triazole], on rat NR1/NR2B receptor, the inhibition at 1 µM is -1.6% and the inhibition at 10 µM is 6.8%.
In the case of `Cc1nc(C2CCC2)nn1Cc1cn(-c2ccc(Cl)cc2)nn1` [Example 22, 1-(4-Chloro-phenyl)-4-(3-cyclobutyl-5-methyl-[1,2,4]triazol-1-ylmethyl)-1H-[1,2,3]triazole], at rat NR1/NR2B receptor, the inhibition at 1 µM was 14.5% and the inhibition at 10 µM is -2.2%.
The like results for `Clc1ccc(-n2cc(Cn3ccnc3Cl)nn2)cc1` [Example 26, 4-(2-Chloro-imidazol-1-ylmethyl)-1-(4-chloro-phenyl)-1H-[1,2,3]triazole] were, in that order, 28.7% and 51.4%.
For `CC(C)(C)c1nccn1Cc1cn(-c2ccc(Cl)cc2)nn1` [Example 30, 4-(2-tert-Butyl-imidazol-1-ylmethyl)-1-(4-chloro-phenyl)-1H-[1,2,3]triazole], on rat NR1/NR2B receptor, the inhibition at 1 µM is 12.7% and the inhibition at 10 µM came to 53.2%.
Take `Cc1nncn1Cc1cn(-c2ccc(Cl)cc2)nn1` [Example 31, 1-(4-Chloro-phenyl)-4-(3-methyl-[1,2,4]triazol-4-ylmethyl)-1H-[1,2,3]triazole]: on rat NR1/NR2B receptor, the inhibition at 1 µM worked out at 3.7% and the inhibition at 10 µM stood at 2.2%.
Consider `Cc1nc(C)n(Cc2cn(-c3ccccc3)nn2)n1` [Example 46, 4-(3,5-Dimethyl-[1,2,4]triazol-1-ylmethyl)-1-phenyl-1H-[1,2,3]triazole], for which, at rat NR1/NR2B receptor, the inhibition at 1 µM turned out to be 9.3% and the inhibition at 10 µM stood at 7.4%.
The like results for `Cc1nc(CO)n(Cc2cn(-c3ccccc3)nn2)n1` [Example 47, 4-(5-Hydroxymethyl-3-methyl-[1,2,4]triazol-1-ylmethyl)-1-phenyl-1H-[1,2,3]triazole] were, in that order, 33.8% and -8.4%.
In the case of `Cc1nc(CO)nn1Cc1cn(-c2ccccc2)nn1` [Example 48, 4-(3-Hydroxymethyl-5-methyl-[1,2,4]triazol-1-ylmethyl)-1-phenyl-1H-[1,2,3]triazole], on rat NR1/NR2B receptor, the inhibition at 1 µM turned out to be 29.6% and the inhibition at 10 µM is -17.1%.
On hERG receptor, `Cc1nccn1Cc1cn(-c2ccc(F)c(C(C)(F)F)c2)nn1` [Example 105, 1-[3-(1,1-Difluoro-ethyl)-4-fluoro-phenyl]-4-(2-methyl-imidazol-1-ylmethyl)-1H-[1,2,3]triazole] displayed an IC50 of 23.1 µM.
Take `Cc1ccc(C(=O)c2nccn2Cc2cn(-c3ccc(Cl)cc3)nn2)cc1` [Example 116, [1-[[1-(4-chlorophenyl)triazol-4-yl]methyl]imidazol-2-yl]-(p-tolyl)methanone]: the inhibition at 1 µM on rat NR1/NR2B receptor was -4.9%.

As usually defined, the IC50 is the concentration at which inhibition is half-maximal. The low end stands for inhibition by little substance, the high end for a need for much substance.

The values are drawn from patent US10323021B2, “Triazoles as NR2B receptor inhibitors” (Janssen Pharmaceuticals, Inc., priority 2014, dated 2019).
